Assay results as given in PubChem BioAssay (NCI).
Several values for one entry are separate records, joined by “and”; a condition that tells them apart may be missing. Identical values can stand only once.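 Step 1: Grow cells in 96-well plates. Step 2: Expose to compound for 48 hours at 5 concentrations. Step 3: Interpolate endpoints linearly; if unreached, use highest concentration. Here, GI50 denotes the concentration required for 50% inhibition of growth. At the TGI there is no net growth.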

The compounds below were run on DU-145 prostate (assay: inhibition of tumour cell growth, NCI panel, 48 h).
For `N#CC(I)CS(=O)(=O)c1ccccc1` (stereo unspecified), the GI50 was 17.2 µM and the TGI was 31.3 µM.
Compound `COc1ccc2c(=O)oc3c(OC)cc(CCN(C)C)c4c(=O)oc1c2c34` has a TGI of 15.8 µM.
In the case of `COc1ccc(Cl)cc1NC(=O)c1ccc(NC2=C(Cl)C(=O)N(Cc3ccccc3)C2=O)cc1`, the GI50 is reported as > 100 µM and the TGI is reported as > 100 µM.
`C=C(C)[C@@H]1CC[C@]2(CN)CC[C@]3(C)[C@H](CC[C@@H]4[C@@]5(C)CCCNC(C)(C)[C@@H]5CC[C@]43C)[C@@H]12` gave a GI50 of 1.59 µM and a TGI of 2.97 µM.
`CCSc1nc(N=Cc2ccccc2O)c2cn[nH]c2n1` was tested, and the GI50 was 72.1 µM and the TGI was > 100 µM.
`CO[C@@H]1CC[C@]2(C)OC[C@H](C)[C@@H]3C[C@@H](C)[C@@H](OC(C)=O)[C@@H]4[C@H]3[C@@H]2O[C@H]4C[C@@]1(C)O` was tested, and the GI50 was > 100 µM and the TGI was > 100 µM.
`CSC[C@H](NC(=O)COc1cccc2cnccc12)C(=O)NC(Cc1ccccc1)C(O)C(=O)N1CSC[C@H]1C(=O)NC(C)(C)C` (stereo partly specified) was tested, and the TGI was > 100 µM.
Compound `O=[N+]([O-])c1cccnc1N=Nc1c(O)[nH]c2ccccc12` has a TGI of 29.6 µM.
With `CCN(CCNS(C)(=O)=O)c1ccc(N)c(C)c1` the GI50 was 10.8 µM and the TGI was 22.8 µM.
With `CN(Cc1cnc2nc(N)nc(N)c2n1)c1ccc(C(=O)N[C@@H](CCS(=O)(=O)O)C(=O)O)cc1` the GI50 was 1.31 µM and the TGI was > 100 µM.

The compounds below were run on UACC-62 melanoma (assay: inhibition of tumour cell growth, NCI panel, 48 h).
In the case of `Nc1c(C(=O)Nc2ccccn2)sc2nc3c(cc12)C(=O)CCC3`, the GI50 is reported as 0.621 µM and the TGI is reported as > 100 µM.
`Cc1nc2c(Br)cc(Br)cc2c(=O)n1-c1nnc(-c2cccc(Cl)c2Cl)c(N)n1` gave a GI50 of 13.4 µM and a TGI of 37.3 µM.
In the case of `N#CC(I)CS(=O)(=O)c1ccccc1` (stereo unspecified), the GI50 is reported as 16.6 µM and the TGI is reported as 30.3 µM.
`COc1ccc2c(=O)oc3c(OC)cc(CCN(C)C)c4c(=O)oc1c2c34` was tested, and the TGI was 31.7 µM and 16.6 µM.
For `COc1ccc(Cl)cc1NC(=O)c1ccc(NC2=C(Cl)C(=O)N(Cc3ccccc3)C2=O)cc1`, the GI50 was 33.7 µM and the TGI was > 100 µM.
Compound `C=C(C)[C@@H]1CC[C@]2(CN)CC[C@]3(C)[C@H](CC[C@@H]4[C@@]5(C)CCCNC(C)(C)[C@@H]5CC[C@]43C)[C@@H]12` has a GI50 of 1.87 µM and a TGI of 3.42 µM.
`CCSc1nc(N=Cc2ccccc2O)c2cn[nH]c2n1` was tested, and the GI50 was 16.4 µM and the TGI was 54.7 µM.
`CO[C@@H]1CC[C@]2(C)OC[C@H](C)[C@@H]3C[C@@H](C)[C@@H](OC(C)=O)[C@@H]4[C@H]3[C@@H]2O[C@H]4C[C@@]1(C)O` was tested, and the GI50 was > 100 µM and the TGI was > 100 µM.
With `CSC[C@H](NC(=O)COc1cccc2cnccc12)C(=O)NC(Cc1ccccc1)C(O)C(=O)N1CSC[C@H]1C(=O)NC(C)(C)C` (stereo partly specified) the TGI was > 100 µM.
For `O=[N+]([O-])c1cccnc1N=Nc1c(O)[nH]c2ccccc12`, the TGI was 23 µM.
For `CN(Cc1cnc2nc(N)nc(N)c2n1)c1ccc(C(=O)N[C@@H](CCS(=O)(=O)O)C(=O)O)cc1`, the TGI was > 100 µM.

Each compound was assayed on SW-620 colon (assay: inhibition of tumour cell growth, NCI panel, 48 h).
For `Nc1c(C(=O)Nc2ccccn2)sc2nc3c(cc12)C(=O)CCC3`, the GI50 was 0.706 µM and the TGI was > 100 µM.
`Cc1nc2c(Br)cc(Br)cc2c(=O)n1-c1nnc(-c2cccc(Cl)c2Cl)c(N)n1` was tested, and the GI50 was 33.8 µM and the TGI was > 100 µM.
With `N#CC(I)CS(=O)(=O)c1ccccc1` (stereo unspecified) the GI50 was 1.78 µM and the TGI was 3.49 µM.
`COc1ccc2c(=O)oc3c(OC)cc(CCN(C)C)c4c(=O)oc1c2c34` was tested, and the GI50 was 14 µM and 5.86 µM and the TGI was 28.1 µM and 17.4 µM.
`COc1ccc(Cl)cc1NC(=O)c1ccc(NC2=C(Cl)C(=O)N(Cc3ccccc3)C2=O)cc1` was tested, and the GI50 was 93 µM and the TGI was > 100 µM.
`C=C(C)[C@@H]1CC[C@]2(CN)CC[C@]3(C)[C@H](CC[C@@H]4[C@@]5(C)CCCNC(C)(C)[C@@H]5CC[C@]43C)[C@@H]12` gave a GI50 of 1.53 µM and a TGI of 3.05 µM.
For `CCSc1nc(N=Cc2ccccc2O)c2cn[nH]c2n1`, the GI50 was 38.4 µM and the TGI was > 100 µM.
With `CO[C@@H]1CC[C@]2(C)OC[C@H](C)[C@@H]3C[C@@H](C)[C@@H](OC(C)=O)[C@@H]4[C@H]3[C@@H]2O[C@H]4C[C@@]1(C)O` the GI50 was > 100 µM and the TGI was > 100 µM.
In the case of `CSC[C@H](NC(=O)COc1cccc2cnccc12)C(=O)NC(Cc1ccccc1)C(O)C(=O)N1CSC[C@H]1C(=O)NC(C)(C)C` (stereo partly specified), the TGI is reported as > 100 µM.
With `O=[N+]([O-])c1cccnc1N=Nc1c(O)[nH]c2ccccc12` the TGI was 87.8 µM.
In the case of `CCN(CCNS(C)(=O)=O)c1ccc(N)c(C)c1`, the GI50 is reported as 2.25 µM and the TGI is reported as 5.31 µM.
With `CN(Cc1cnc2nc(N)nc(N)c2n1)c1ccc(C(=O)N[C@@H](CCS(=O)(=O)O)C(=O)O)cc1` the TGI was > 100 µM.

The compounds below were run on SNB-19 CNS (assay: inhibition of tumour cell growth, NCI panel, 48 h).
In the case of `Nc1c(C(=O)Nc2ccccn2)sc2nc3c(cc12)C(=O)CCC3`, the GI50 is reported as 1.3 µM and the TGI is reported as > 100 µM.
With `Cc1nc2c(Br)cc(Br)cc2c(=O)n1-c1nnc(-c2cccc(Cl)c2Cl)c(N)n1` the GI50 was 42 µM and the TGI was > 100 µM.
`N#CC(I)CS(=O)(=O)c1ccccc1` (stereo unspecified) was tested, and the GI50 was > 100 µM and the TGI was > 100 µM.
`COc1ccc2c(=O)oc3c(OC)cc(CCN(C)C)c4c(=O)oc1c2c34` was tested, and the TGI was 29.2 µM and 21.4 µM.
`COc1ccc(Cl)cc1NC(=O)c1ccc(NC2=C(Cl)C(=O)N(Cc3ccccc3)C2=O)cc1` was tested, and the GI50 was > 100 µM and the TGI was > 100 µM.
`CCSc1nc(N=Cc2ccccc2O)c2cn[nH]c2n1` was tested, and the GI50 was 56.1 µM and the TGI was > 100 µM.
In the case of `CO[C@@H]1CC[C@]2(C)OC[C@H](C)[C@@H]3C[C@@H](C)[C@@H](OC(C)=O)[C@@H]4[C@H]3[C@@H]2O[C@H]4C[C@@]1(C)O`, the GI50 is reported as > 100 µM and the TGI is reported as > 100 µM.
With `CSC[C@H](NC(=O)COc1cccc2cnccc12)C(=O)NC(Cc1ccccc1)C(O)C(=O)N1CSC[C@H]1C(=O)NC(C)(C)C` (stereo partly specified) the TGI was > 100 µM.
`O=[N+]([O-])c1cccnc1N=Nc1c(O)[nH]c2ccccc12` gave a TGI of 58.5 µM.
Work on `CCN(CCNS(C)(=O)=O)c1ccc(N)c(C)c1` yielded a GI50 of 17.7 µM and a TGI of 33.8 µM.
`CN(Cc1cnc2nc(N)nc(N)c2n1)c1ccc(C(=O)N[C@@H](CCS(=O)(=O)O)C(=O)O)cc1` was tested, and the TGI was > 100 µM.

These compounds were tested on 786-0 renal (assay: inhibition of tumour cell growth, NCI panel, 48 h).
`Nc1c(C(=O)Nc2ccccn2)sc2nc3c(cc12)C(=O)CCC3` gave a GI50 of 1.33 µM and a TGI of 44.6 µM.
`Cc1nc2c(Br)cc(Br)cc2c(=O)n1-c1nnc(-c2cccc(Cl)c2Cl)c(N)n1` showed a GI50 of 18.4 µM and a TGI of 48.2 µM.
Work on `N#CC(I)CS(=O)(=O)c1ccccc1` (stereo unspecified) yielded a GI50 of 19.1 µM and a TGI of 33.2 µM.
`COc1ccc2c(=O)oc3c(OC)cc(CCN(C)C)c4c(=O)oc1c2c34` was tested, and the GI50 was 3.66 µM and 0.762 µM and the TGI was 14.2 µM and 1.51 µM.
`COc1ccc(Cl)cc1NC(=O)c1ccc(NC2=C(Cl)C(=O)N(Cc3ccccc3)C2=O)cc1` was tested, and the GI50 was > 100 µM and the TGI was > 100 µM.
Work on `C=C(C)[C@@H]1CC[C@]2(CN)CC[C@]3(C)[C@H](CC[C@@H]4[C@@]5(C)CCCNC(C)(C)[C@@H]5CC[C@]43C)[C@@H]12` yielded a GI50 of 1.74 µM and a TGI of 3.57 µM.
For `CCSc1nc(N=Cc2ccccc2O)c2cn[nH]c2n1`, the GI50 was 41.8 µM and the TGI was > 100 µM.
`CO[C@@H]1CC[C@]2(C)OC[C@H](C)[C@@H]3C[C@@H](C)[C@@H](OC(C)=O)[C@@H]4[C@H]3[C@@H]2O[C@H]4C[C@@]1(C)O` was tested, and the GI50 was > 100 µM and the TGI was > 100 µM.
For `CSC[C@H](NC(=O)COc1cccc2cnccc12)C(=O)NC(Cc1ccccc1)C(O)C(=O)N1CSC[C@H]1C(=O)NC(C)(C)C` (stereo partly specified), the TGI was > 100 µM.
Compound `O=[N+]([O-])c1cccnc1N=Nc1c(O)[nH]c2ccccc12` has a TGI of 52 µM.
`CCN(CCNS(C)(=O)=O)c1ccc(N)c(C)c1` was tested, and the GI50 was 9.76 µM and the TGI was 21.9 µM.
In the case of `CN(Cc1cnc2nc(N)nc(N)c2n1)c1ccc(C(=O)N[C@@H](CCS(=O)(=O)O)C(=O)O)cc1`, the GI50 is reported as 0.0955 µM and the TGI is reported as > 100 µM.
